Measurements from US8455469B2, “Use of norgestimate as a selective inhibitor of TRPC3, TRPC6 and TRPC7 ion channels” (Sanofi, priority 2007, dated 2013).

Assays:
[1] = target: T1, TRPC3 (Homo sapiens, UniProt Q13507); experiment: FLIPR Ca2+ influx measurement, OAG-activated TRPC3 HEK293 cells; type: cell-based; details: 30 μM OAG
T1 construct: expressed in transfected cells; host or cells: HEK293 (inducible expression)
T1 sequence (Q13507 1-921): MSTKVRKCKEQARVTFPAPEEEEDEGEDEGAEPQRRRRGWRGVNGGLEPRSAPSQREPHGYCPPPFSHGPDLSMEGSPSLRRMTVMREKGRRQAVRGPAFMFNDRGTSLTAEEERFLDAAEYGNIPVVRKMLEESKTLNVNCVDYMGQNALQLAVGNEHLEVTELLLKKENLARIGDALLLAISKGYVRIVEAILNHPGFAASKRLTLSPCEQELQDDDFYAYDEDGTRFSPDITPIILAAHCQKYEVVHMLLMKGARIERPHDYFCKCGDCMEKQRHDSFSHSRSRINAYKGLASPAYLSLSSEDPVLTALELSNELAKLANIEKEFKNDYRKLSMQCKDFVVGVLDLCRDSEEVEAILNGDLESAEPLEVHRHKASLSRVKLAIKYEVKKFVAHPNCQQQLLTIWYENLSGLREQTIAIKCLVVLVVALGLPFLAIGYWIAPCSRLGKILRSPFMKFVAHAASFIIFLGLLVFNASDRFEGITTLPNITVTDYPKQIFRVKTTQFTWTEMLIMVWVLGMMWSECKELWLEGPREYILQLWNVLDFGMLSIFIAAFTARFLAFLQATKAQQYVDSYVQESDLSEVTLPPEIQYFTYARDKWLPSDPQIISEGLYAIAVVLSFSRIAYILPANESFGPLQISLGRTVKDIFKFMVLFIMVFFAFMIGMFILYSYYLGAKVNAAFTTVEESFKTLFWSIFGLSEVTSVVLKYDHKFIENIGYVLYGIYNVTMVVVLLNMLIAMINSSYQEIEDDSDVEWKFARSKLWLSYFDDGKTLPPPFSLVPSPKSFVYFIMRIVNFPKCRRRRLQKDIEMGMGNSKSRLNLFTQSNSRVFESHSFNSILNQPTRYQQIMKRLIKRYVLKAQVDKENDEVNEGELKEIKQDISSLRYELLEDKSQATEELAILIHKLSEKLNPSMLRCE
Source text: (§1) In general, cells are provided which express a TRPC channel. Such cells can be produced using genetic methods known to a person skilled in the art. After having induced the expression of the TRPC channel, cells are usually plated into e.g. microtiter plates and grown. Usually the cells grow at the bottom of multiwell plates and are fixed. Thereafter, the cells are generally washed and loaded with a dye in a suitable loading buffer, preferably with a fluorescent dye such as fluo4am. After having removed the loading buffer, the cells are incubated with the test compound or modulator, in particular with a biochemical or chemical test compound as described above, e.g. in the form of a chemical compound library. Ca^2+ measurements can be carried out using e.g. a Fluorescence Imaging Plate Reader (FLIPR). To stimulate Ca^2+ influx through the TRPC channel a channel activator such as OAG should generally be applied.
(§2) TRPC3 and TRPC6 were directly activated by application of oleoyl-2-acetyl-sn-glycerol (OAG), a membrane permeable diacylglycerol analogue.
(§3) (A, C) Time-dependent changes of intracellular Ca^2+ concentration ([Ca^2+]i) of fluo-4-loaded induced TRPC3 HEK293 cells (A) and TRPC6 HEK293 cells (C). […] Measurements were performed in 96er well plates using FLIPR (Molecular Devices, Sunnyvale, Calif., USA) (B, D) Determination of norgestimates IC50 value on TRPC3 (B) and TRPC6 (D). […]

[2] = target: T2, TRPC6 (Homo sapiens, UniProt Q9Y210); experiment: FLIPR Ca2+ influx measurement, OAG-activated TRPC6 HEK293 cells; type: cell-based; details: 30 μM OAG
T2 construct: expressed in transfected cells; host or cells: HEK293 (inducible expression)
T2 sequence (Q9Y210 1-931): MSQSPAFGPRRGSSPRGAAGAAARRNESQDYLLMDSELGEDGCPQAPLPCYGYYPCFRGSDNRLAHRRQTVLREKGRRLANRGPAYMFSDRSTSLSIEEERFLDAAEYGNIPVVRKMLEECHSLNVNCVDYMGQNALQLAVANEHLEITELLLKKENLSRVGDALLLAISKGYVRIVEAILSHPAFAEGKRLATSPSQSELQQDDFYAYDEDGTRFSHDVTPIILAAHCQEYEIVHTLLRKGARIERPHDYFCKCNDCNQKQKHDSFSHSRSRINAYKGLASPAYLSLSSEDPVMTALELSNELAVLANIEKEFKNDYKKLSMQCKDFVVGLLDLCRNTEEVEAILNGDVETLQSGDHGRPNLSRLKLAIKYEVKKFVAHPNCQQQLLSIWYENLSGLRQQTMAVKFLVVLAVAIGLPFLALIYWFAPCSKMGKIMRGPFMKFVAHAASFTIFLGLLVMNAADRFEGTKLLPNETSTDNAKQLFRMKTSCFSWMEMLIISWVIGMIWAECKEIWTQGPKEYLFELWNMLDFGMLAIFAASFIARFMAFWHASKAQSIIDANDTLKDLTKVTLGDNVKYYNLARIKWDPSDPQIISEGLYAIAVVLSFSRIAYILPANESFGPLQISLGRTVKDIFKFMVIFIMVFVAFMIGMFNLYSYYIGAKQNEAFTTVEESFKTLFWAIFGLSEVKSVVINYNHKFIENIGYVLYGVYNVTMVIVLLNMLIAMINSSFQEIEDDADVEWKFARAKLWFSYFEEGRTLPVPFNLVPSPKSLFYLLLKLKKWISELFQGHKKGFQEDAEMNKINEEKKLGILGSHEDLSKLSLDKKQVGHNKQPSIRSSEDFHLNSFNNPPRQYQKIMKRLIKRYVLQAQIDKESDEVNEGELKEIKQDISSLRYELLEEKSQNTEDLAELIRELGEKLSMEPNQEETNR
Source text: as §1, §2, §3

[3] = cells preincubated with 30 μM norgestimate

Q: Which IC50 ([1]; FLIPR, n=2) does the source give for `C#C[C@]1(OC(C)=O)CC[C@H]2[C@@H]3CCC4=C/C(=N/O)CC[C@@H]4[C@H]3CC[C@@]21CC` [norgestimate, D-17β-acetoxy-B-ethyl-17α ethinyl-gon-4-en-3-one oxime] here?
A: Its IC50 is 2.8 ± 0.4 µM.

Q: What about the “TRPC3-mediated Ca2+ influx following application of OAG” value [1, 3] of the same compound?
A: The value was “strongly reduced”.

Q: What about the IC50 ([2]; FLIPR, n=4) of the same compound?
A: The IC50 was 5.2 ± 0.4 µM.

Q: And the “TRPC6-mediated Ca2+ influx following application of OAG” value [2, 3]?
A: The value was “strongly reduced”.
